Reference: patent US20050148514A1, “Method and composition for treatment of angiogenesis” (priority 2003, published 2005)
Where no end group is shown, it is not given here.

Experiments:
ERK = assay: VEGF-induced ERK phosphorylation in BAEC; format: cell-based; conditions: data not shown
Experimental: VEGF is a strong activator of ERKs (Extracellular-signal-Regulated protein Kinases) 1 and 2 via VEGF receptor 2. In order to test the ability of the PCK3145 derivative in potentially antagonizing VEGF-mediated ERK phosphorylation, serum-starved quiescent endothelial cells (HUVEC) were incubated with vehicle (phosphate-buffered saline (PBS) pH 7.4) or PCK3145 derivative (300 μg/ml) for 24 h and then stimulated with VEGF, bFGF (basic Fibroblast Growth Factor) or S1P (sphingosine-1-phosphate). Cells were washed with PBS containing NaF/Na3VO4 and incubated in the same medium buffer for 1 h at 4° C. The cells were scraped from the culture dishes and the resulting lysates clarified by centrifugation. Western blotting and immunodetection using anti-phosphoERK and anti-ERK antibodies was then performed.
The total amount of ERK in each sample of cells was unaffected by the PCK3145 derivative (FIG. 4A). Although, PCK3145 derivative also seemed to stimulate ERK phosphorylation induced by S1P in HUVEC (FIG. 4A), that result was found not statistically significant.

NFkB pathway = assay: SEAP gene-reporter assay in U-87 glioma cells, NFkB element; format: cell-based; conditions: alkaline phosphatase activity in extracellular media
Experimental: In order to investigate the potential intracellular pathways triggered by the PCK3145 derivative, a gene-reporter assay using the SEAP (Secreted Alkaline Phosphatase) Mercury Profiling Kit (CLONTECH) was performed in glioma cells (U-87). This assay enables the monitoring of transcription factors that are triggered by a particular experimental condition by assaying the alkaline phosphatase activity in the extracellular media. […] The induction of the MAPK pathway by the PCK3145 derivative is further confirmed by the rapid and transient induction of ERK phosphorylation between 5-10 minutes (FIG. 8B) and is shown to be dose-dependent (FIG. 8C). Finally, the effects of the PCK3145 derivative were also compared to those of a scrambled peptide.

[1] = tested on: total MMP-9, i.e., human active and pro-MMP-9; assay: Total MMP-9 ELISA (Quantikine) on plasma of prostate cancer patients treated with the drug; format: in vivo; conditions: for MMP-9 level in plasma, D27C1: day 27 of treatment cycle 1; for Maximum Reduction of MMP-9: versus baseline D1C1; for MMP-9 level in plasma, D27C2: day 27 of treatment cycle 2
Experimental: The reconstituted drug used in the present example is made from a solution containing a 20 mg/mL of PCK3145 derivative (SEQ ID NO.:5 derivative); SEQ ID NO.: 7, in a phosphate buffer at pH 7.4 for dilution in sterile saline (0.9% NaCl, BP) prior to intravenous administration. The solutions is filled into Type 1 glass vials, stoppered with Teflon®-faced butyl stoppers, and sealed with flip-off seals.
The drug was administered to patients characterized as having metastatic adenocarcinoma of the prostate, stage 1V prostatic cancer and as having a metastatic hormone resistant prostatic cancer.
Biological samples were drawn during different time points. Plasma samples were placed on dry ice and stored frozen (approximately −70° C.) and subsequently analyzed for total MM P-9 levels.
MMP-9 assay methodology. An Elisa assay measuring total MMP-9, i.e., human active and pro-MMP-9, (Quantikine®, Cat. No.: DMP900, R&D Systems Inc.) was performed on plasma-heparin samples. Plasma samples have been collected from individuals at day 1 (before treatment) and at day 27 of each treatment cycle.
The Quantikine® MMP-9 immunoassay is a solid phase ELISA designed to measure total MMP-9 (92 kDa pro- and 82 kDa active forms) in serum, plasma, saliva, urine and cell culture supernatants. It is calibrated with CHO-cells expressed recombinant human pro-MMP-9 and the antibodies were raised against the recombinant factor. Both antibodies also recognize recombinant human active MMP-9.
The assay employs the quantitative sandwich enzyme immunoassay technique. A monoclonal antibody specific for MMP-9 has been pre-coated onto a microplate. Standards and samples are added into the wells, and MMP-9 is thus bound by the immobilized antibody. After washing away unbound substances, an enzyme-linked polyclonal antibody specific for MMP-9 is added to the wells. Following a wash to remove unbound antibody-enzyme reagent, a substrate solution is added to the wells and color develops in proportion to the amount of total MMP-9 (pro and/or active) bound in the initial step. The color development is stopped and the intensity of the color is measured.
Results of MMP-9 levels in patient's plasma, before and after one or more treatment cycle with PCK3145 derivative; SEQ ID NO.: 7 are illustrated in Table 2.
Normal values of healthy volunteers were not determined in this study but lizasa et al., has determined that the normal range of plasma MMP-9 concentrations is about 11.4 to 59.4 ng/ml. Based on theses values, patients were sub-divided into two categories; those having normal value of MMP-9 (below 100 μg/L) and those having an elevated level of MMP-9 (higher than 100 μg/L) at baseline (see column identified as D1C1 in Table2).

## EWQTDNCETCTCYET (cysteine pairing not given here)
ERK
  ERK phosphorylation induced by VEGF: inhibitory effect was confirmed
NFkB pathway
  SEAP reporter, NFkB pathway: triggers significantly
[1]; elevated MMP-9 category (patients A, B, C and D), each patient after one cycle of treatment
  change in MMP-9 levels compared to baseline: significant decrease
[1]; normal value MMP-9 category (patients E, F, G, H and I), after one cycle of treatment
  change in MMP-9 levels compared to baseline: no significant decrease
[1]; patient A, after one cycle of treatment
  decrease in MMP-9 levels compared to baseline levels: up to 89%
[1]; patient A, elevated MMP-9 (baseline D1C1 424)
  MMP-9 level in plasma, D27C1: 47.3 µg/L
[1]; patient A
  Maximum Reduction of MMP-9: 89%
[1]; patient B, after cycle 1
  decrease in MMP-9: 41%
[1]; patient B, elevated MMP-9 (baseline D1C1 156.5)
  MMP-9 level in plasma, D27C1: 91.6 µg/L
[1]; patient B, treatment cycle 2
  reduction of baseline level of MMP-9: 64%
[1]; patient B, treatment cycle 3
  reduction of baseline level of MMP-9: 65%
[1]; patient B, treatment cycle 4
  reduction of baseline level of MMP-9: 75%
[1]; patient B
  Maximum Reduction of MMP-9: 75%
[1]; patient C, at cycle 1
  decrease in MMP-9: 90%
[1]; patient C, cycle 2
  reduction in MMP-9 levels: 76%
[1]; patient C, elevated MMP-9 (baseline D1C1 155)
  MMP-9 level in plasma, D27C1: 14.9 µg/L
[1]; patient C
  Maximum Reduction of MMP-9: 90%
[1]; patient D, at cycle 1
  decrease in MMP-9: 34%
[1]; patient D, elevated MMP-9 (baseline D1C1 130.2)
  MMP-9 level in plasma, D27C1: 85.2 µg/L
[1]; patient D
  Maximum Reduction of MMP-9: 34%
[1]; patient E (baseline D1C1 57.5)
  MMP-9 level in plasma, D27C2: 60.1 µg/L
[1]; patient E, after 3 cycles of treatment
  change in MMP-9 levels compared to baseline: still no MMP-9 decrease
[1]; patient E, normal MMP-9 (baseline D1C1 57.5)
  MMP-9 level in plasma, D27C1: 58 µg/L
[1]; patient F, normal MMP-9 (baseline D1C1 53.2)
  MMP-9 level in plasma, D27C1: 73.1 µg/L
[1]; patient G (baseline D1C1 33.9)
  MMP-9 level in plasma, D27C2: 189.6 µg/L
[1]; patient G, normal MMP-9 (baseline D1C1 33.9)
  MMP-9 level in plasma, D27C1: 45.4 µg/L
[1]; patient H (baseline D1C1 57.0)
  MMP-9 level in plasma, D27C2: 65 µg/L
[1]; patient H, normal MMP-9 (baseline D1C1 57.0)
  MMP-9 level in plasma, D27C1: 44.0 µg/L
[1]; patient I, normal MMP-9 (baseline D1C1 22.1)
  MMP-9 level in plasma, D27C1: 18.8 µg/L
[1]; patients E and G, after 2 cycles of treatment
  change in MMP-9 levels compared to baseline: no decrease in MMP-9 levels was observed
